Data set [1] is described as follows: Aqueous solubility / BCS classification. The class given is physicochemical. Particulars: for BCS class: low solubility/high permeability; for Solubility in water: physiological pHs (from pH 1.5-8.0). From the text: Studies of these compounds indicate that these compounds are BCS class II compounds (low solubility/high permeability). […] Poor bioavailability is also often accompanied by highly variable patient blood levels and unpredictable dose/therapeutic effects due to erratic absorption of the drug by the patient. Accordingly, a need exists for compositions and methods to increase the solubility of these compounds.

Molecules are shown by their SMILES.

In the case of `COc1ncnc(C2CC2)c1-c1ncc2cnn(Cc3ccc(-c4nc(C(F)(F)F)cn4C(C)C)cc3)c2n1` [Formula II, 6-(4-cyclopropyl-6-methoxypyrimidin-5-yl)-1-(4-(1-isopropyl-4-(trifluoromethyl)-1H-imidazol-2-yl)benzyl)-1H-pyrazolo[3,4-d]pyrimidine], in data set [1], the BCS class result is reported as “BCS class II” and the Solubility in water entry is listed as “poorly soluble”. Moreover, the Bioavailability result in “Bioavailability” is reported as “low bioavailability”.

As for `COc1ncnc(C2CC2)c1-c1ncc2cnn(Cc3ccc(-n4nc(C(F)(F)F)cc4C)cc3)c2n1` [Formula III, 6-(4-cyclopropyl-6-methoxypyrimidin-5-yl)-1-(4-(5-methyl-3-(trifluoromethyl)-1H-pyrazol-1-yl)benzyl)-1H-pyrazolo[3,4-d] pyrimidine], in data set [1], the BCS class result is given as “BCS class II” and the Solubility in water entry is reported as “poorly soluble”. The Bioavailability entry in the data set “Bioavailability” is reported as “low bioavailability”.

Values taken from patent US12624040B2, “Compositions of substituted pyrazolopyrimidines and uses thereof” (KSQ Therapeutics, Inc., priority 2020, dated 2026).
